In PubChem BioAssay (NCI):
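Five compound concentrations were applied to cells in 96-well plates for 48 hours; endpoints were derived by simple linear interpolation of the resulting dose-response curve. GI50: concentration for 50% inhibition of growth. The concentration for full growth arrest is given as TGI.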

Legend:
Experiment in all cases: NCI tumour cell line growth inhibition, 48 h
[1] = tested on: SK-OV-3 ovarian
[2] = tested on: NCI/ADR-RES ovarian
[3] = tested on: MALME-3M melanoma
[4] = tested on: NCI-H23 lung
[5] = tested on: LOX IMVI melanoma
[6] = tested on: MOLT-4 leukemia
[7] = tested on: M14 melanoma
[8] = tested on: SW-620 colon
[9] = tested on: SK-MEL-5 melanoma
[10] = tested on: SNB-75 CNS

SMILES	TGI [1] [µM]	TGI [2] [µM]	TGI [3] [µM]	TGI [4] [µM]	TGI [5] [µM]	TGI [6] [µM]	TGI [7] [µM]	TGI [8] [µM]	TGI [9] [µM]	TGI [10] [µM]	GI50 [10] [µM]	GI50 [1] [µM]	GI50 [2] [µM]	GI50 [6] [µM]	GI50 [9] [µM]
COC(=O)[C@@]1(Cc2ccc(OC(C)=O)cc2)Cc2cc3ccccc3n2N1	> 100	96.4	> 100	> 100	> 100	> 100	> 100	> 100	37.1	–	–	–	–	–	–
O=C(N/N=C/c1ccc(O)cc1)NNCCO	> 100	> 100	> 100	> 100	–	> 100	> 100	> 100	> 100	> 100	–	–	–	–	–
CC(C)C(N=C1CC2CCC1(C(=O)Nc1ccccc1O)C2(C)C)c1ccccc1 (stereo not drawn)	> 10	–	> 10	> 10	> 10	> 10	> 10	> 10	> 10	> 10	–	–	–	–	–
CC(=O)OC1CC[C@@]2(C)C(=CC[C@@H]3[C@@H]2CC[C@]2(C)Nc4c(cnn4-c4ccc(F)cc4)C[C@@H]32)C1 (stereo partly drawn)	> 100	> 100	> 77.6	> 100	> 58.6	–	> 100	> 100	> 93.9	66.5	–	–	–	–	–
N#Cc1cc([N+](=O)[O-])ccc1NC(=O)C(=O)Nn1c(=S)[nH]c2ccccc2c1=O	> 100	–	> 100	> 100	> 100	–	> 100	> 100	> 100	> 100	–	–	–	–	–
Cn1cnc([N+](=O)[O-])c1Sc1nnc(-c2ccc(Cl)cc2)n1C	> 100	–	23	32.1	20.6	66.1	26.6	23.5	–	46.7	–	–	–	–	–
O=C1/C(=C/Cc2ccco2)N=C(c2ccccc2)N1c1nc2ccc(Sc3ccccc3)cc2[nH]1	84.6	72.4	–	–	43.7	92.9	42.5	> 100	31.8	75.7	–	–	–	–	–
COC(=O)C12CCC(CC1=O)C2(C)C (stereo not drawn)	> 100	–	> 100	> 100	> 100	> 100	> 100	> 100	> 100	> 100	–	–	–	–	–
O=C(C#Cc1ccccc1)Nc1ccccc1CC(c1c[nH]c2ccccc12)c1c[nH]c2ccccc12	> 100	–	> 100	37.1	43.6	34.2	39.6	27.4	31.8	> 100	–	–	–	–	–
O=C(NNC(=O)c1ccccc1O)c1cccs1	> 100	> 100	> 100	–	> 100	> 100	> 100	> 100	> 100	> 100	–	–	–	–	–
CCCN1CCN(c2ccc3nc(-c4ccc5nc(-c6ccc(OCC)cc6)[nH]c5c4)[nH]c3c2)CC1	3.37	> 100	–	–	–	3.42	–	–	2.24	29.6	0.567	1.33	2.84	1.06	1.04
COc1cc2ccnc3c2c(c1OC)N(C)C=C3	79.3	76.4	–	47	50.4	> 100	68.8	> 100	–	> 100	–	–	–	–	–
O=C1C2Cc3ccccc3CN2C(=O)N1CN1CCCCC1 (stereo not drawn)	–	–	> 100	> 100	> 100	> 100	> 100	> 100	> 100	–	–	–	–	–	–
COc1ccc2nc3c(nc2c1)C(C)(C)C=C3c1ccc(Br)cc1	–	> 100	> 100	–	> 100	> 100	> 100	21.9	> 100	> 100	–	–	–	–	–
Cc1ccc2c(=O)cc(-c3ccccc3)[nH]c2n1	> 21	0.31	> 100	16.8	> 100	> 28.3	–	> 100	18.7	> 100	–	–	–	–	–
OC[C@@H](O)[C@H](O)[C@H](O)[C@@H](O)C1SCCCS1	> 100	> 100	–	> 100	–	> 100	> 100	> 100	> 100	> 100	–	–	–	–	–
Nc1nc(Cl)cc(OCC2(CO)CCCCC2)n1	–	> 100	> 100	> 100	> 100	> 100	–	> 100	> 100	> 100	–	–	–	–	–
Cn1c(=Nc2ccccc2[N+](=O)[O-])sc2ccccc21	97.2	> 100	> 100	> 100	> 100	> 100	–	> 100	> 100	89	–	–	–	–	–
COc1ccc(C2=Nn3c(nc4sc5c(c4c3=O)CCCC5)SC2)cc1	> 100	> 100	> 100	> 100	> 100	> 100	–	> 100	> 100	–	–	–	–	–	–
Nc1ccc(Oc2ccc(C34CC5CC(C3)CC(c3ccc(Oc6ccc(N)c(O)c6)cc3)(C5)C4)cc2)cc1O	8.57	6.12	6.24	4.1	3.11	> 100	3.05	> 100	4.37	–	–	–	–	–	–
O=[N+]([O-])c1cc(-c2ccc([As](=O)(O)O)cc2)ccc1[As](=O)(O)O	–	> 100	> 100	> 100	> 100	> 100	> 100	> 100	> 100	–	–	–	–	–	–
Cc1[nH]c(-c2ccccc2)c(O)c1C(=O)OC1CC(C)CCC1C(C)C (stereo not drawn)	29.1	28.2	32.9	26.6	–	28.1	29	29.2	30.2	34.3	–	–	–	–	–
CNC(=O)/C(C#N)=C(\N)N1CCCC1	> 100	> 100	> 100	> 100	–	> 100	–	> 100	> 100	–	–	–	–	–	–
Cc1nc2cc3[nH]c4ccccc4c(=O)c3cc2s1	> 100	–	> 100	> 100	–	> 100	> 100	> 100	> 100	> 100	–	–	–	–	–
